What was measured:
[1] = molecular target: Carbonic anhydrase 9 (Homo sapiens, UniProt Q16790)
Description: Inhibition constant against human cloned isozyme (hCA IX) by CO2 hydration method

[2] = molecular target: Carbonic anhydrase 2 (Homo sapiens, UniProt P00918)
Description: Inhibition constant against human (cloned) isozyme (hCA II) by CO2 hydration method

[3] = molecular target: Carbonic anhydrase 1 (Homo sapiens, UniProt P00915)
Description: Inhibition constant against human (cloned) isozyme (hCA I) by the CO2 hydration method

[4] = in vitro; conditions: human, whole blood; level measured in red blood cells
Description: Compound level in Red Blood Cells at 48 h, after exposure of 10 mL of Blood to compound solution by HPLC method

[5] = in vitro; conditions: human, whole blood; level measured in red blood cells; remark: listed apart in the source
Description: Compound level in Red Blood Cells at 30 min, after exposure of 10 mL of Blood to compound solution by HPLC method

[6] = in vitro; conditions: human, whole blood; level measured in red blood cells; remark: listed apart in the source
Description: Compound level in Red Blood Cells at 60 min, after exposure of 10 mL of Blood to compound solution by HPLC method

[7] = in vitro; conditions: human, whole blood; level measured in red blood cells; remark: listed apart in the source
Description: Compound level in Red Blood Cells at 48 h, after Exposure of 10 mL of Blood to Compound solution by electronic spectroscopic method

[8] = in vitro; conditions: human, whole blood; level measured in red blood cells; remark: listed apart in the source
Description: Compound level in Red Blood Cells at 30 min, after exposure of 10 mL of Blood to compound solution by electronic spectroscopic method

[9] = in vitro; conditions: human, whole blood; level measured in red blood cells; remark: listed apart in the source
Description: Compound level in Red Blood Cells at 60 min, after exposure of 10 mL of Blood to compound solution by electronic spectroscopic method

Chain of Carbonic anhydrase 1 (P00915 whole entry): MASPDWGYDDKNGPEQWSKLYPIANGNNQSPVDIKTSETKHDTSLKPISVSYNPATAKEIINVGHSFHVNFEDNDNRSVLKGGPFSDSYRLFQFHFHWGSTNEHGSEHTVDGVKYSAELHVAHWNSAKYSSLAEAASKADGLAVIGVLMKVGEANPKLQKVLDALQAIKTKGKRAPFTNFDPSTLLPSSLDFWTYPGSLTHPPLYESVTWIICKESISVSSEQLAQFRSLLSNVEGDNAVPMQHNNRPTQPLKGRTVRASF

Compound | Ki [1] | Ki [2] | Ki [3] | concentration at 48 h [4] | concentration at 0.5 h [5] | concentration at 1 h [6] | concentration at 48 h [7] | concentration at 0.5 h [8] | concentration at 1 h [9]
NS(=O)(=O)c1ccc(/N=C(S)/N=C2/C=CC(=C3c4ccc(O)cc4Oc4cc(O)ccc43)C(C(=O)O)=C2)c(Br)c1 | 35 nM | 43 nM | 1100 nM |  |  |  |  |  | 
NS(=O)(=O)c1ccc(/N=C(S)/N=C2/C=CC(=C3c4ccc(O)cc4Oc4cc(O)ccc43)C(C(=O)O)=C2)c(Cl)c1 | 32 nM | 52 nM | 950 nM |  |  |  |  |  | 
CC(=O)/N=c1/sc(S(N)(=O)=O)nn1C [METHAZOLAMIDE] |  |  |  | 167 µM | 170 µM | 168 µM | 169 µM | 169 µM | 168 µM
NCCc1ccc(S(N)(=O)=O)cc1 |  |  |  | 167 µM | 132 µM | 162 µM | 168 µM | 138 µM | 165 µM
NS(=O)(=O)c1ccc(CC/N=C(S)/N=C2/C=CC(=C3c4ccc(O)cc4Oc4cc(O)ccc43)C(C(=O)O)=C2)cc1 |  |  | 1300 nM |  |  |  |  |  | 
NS(=O)(=O)c1ccc(C/N=C(S)/N=C2/C=CC(=C3c4ccc(O)cc4Oc4cc(O)ccc43)C(C(=O)O)=C2)cc1 | 26 nM |  | 1450 nM |  |  |  |  |  | 
Cc1cc(C)[n+](Cc2ccc(S(N)(=O)=O)cc2)cc1C.[O-][Cl+3]([O-])([O-])[O-] | 38 nM | 50 nM | 7000 nM | 0.3 µM | 0.3 µM | 0.4 µM | 0.5 µM | 0.5 µM | 0.5 µM
NS(=O)(=O)c1ccc(/N=C(S)/N=C2/C=CC(=C3c4ccc(O)cc4Oc4cc(O)ccc43)C(C(=O)O)=C2)c(I)c1 | 31 nM | 40 nM | 1070 nM |  |  |  |  |  | 
NS(=O)(=O)c1ccc(/N=C(S)/N=C2/C=CC(=C3c4ccc(O)cc4Oc4cc(O)ccc43)C(C(=O)O)=C2)c(F)c1 | 30 nM |  | 980 nM |  |  |  |  |  | 
